According to patent US20200188426A1, “WOUND MANAGEMENT METHOD” (priority 2018, published 2020):

Tested on: microbes (bacteria, fungi, and viruses)
Assay: testing of methylene chloride as microbicidal agent
Format: cell-based
Conditions: in liquid form, prior to evaporation

SMILES: ClCCl [methylene chloride]
- microbicidal activity on contact: kill microbes (bacteria, fungi, and viruses) on contact
